In assay [1] the target is T1, mGPRC6A (mouse GPRC6A) (Mus musculus, UniProt Q8K4Z6).
T1 sequence (Q8K4Z6 21-928): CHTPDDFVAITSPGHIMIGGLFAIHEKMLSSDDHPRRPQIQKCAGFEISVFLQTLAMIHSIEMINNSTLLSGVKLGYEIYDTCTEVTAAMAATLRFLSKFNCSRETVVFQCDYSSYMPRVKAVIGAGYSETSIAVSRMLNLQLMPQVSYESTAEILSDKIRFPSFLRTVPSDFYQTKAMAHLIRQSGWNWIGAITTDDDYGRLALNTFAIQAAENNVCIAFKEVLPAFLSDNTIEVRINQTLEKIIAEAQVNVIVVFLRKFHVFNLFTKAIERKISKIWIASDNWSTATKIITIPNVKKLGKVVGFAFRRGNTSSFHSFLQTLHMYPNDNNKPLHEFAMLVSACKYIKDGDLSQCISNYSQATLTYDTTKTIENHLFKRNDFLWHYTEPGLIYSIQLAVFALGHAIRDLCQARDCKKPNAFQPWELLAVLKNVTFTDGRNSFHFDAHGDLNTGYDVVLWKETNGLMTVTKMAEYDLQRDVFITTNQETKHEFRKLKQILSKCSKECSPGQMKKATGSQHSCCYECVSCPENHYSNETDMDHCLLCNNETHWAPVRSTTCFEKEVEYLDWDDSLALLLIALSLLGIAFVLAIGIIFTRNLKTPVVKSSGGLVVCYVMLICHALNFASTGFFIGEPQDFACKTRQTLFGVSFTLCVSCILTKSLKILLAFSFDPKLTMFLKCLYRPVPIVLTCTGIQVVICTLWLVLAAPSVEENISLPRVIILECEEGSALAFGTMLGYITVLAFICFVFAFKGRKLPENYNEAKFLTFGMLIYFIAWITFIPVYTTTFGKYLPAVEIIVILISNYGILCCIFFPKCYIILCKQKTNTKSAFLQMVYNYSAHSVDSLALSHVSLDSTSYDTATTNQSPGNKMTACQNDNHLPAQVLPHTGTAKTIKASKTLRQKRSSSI
Kind of assay: Label-free cell impedance (xCELLigence), tetracycline-induced FlpIn-TREx-HEK293-mGPRC6A cells. The assay is classed as cell-based. As to conditions: tetracycline-induced; xCELLigence; Fig 4. The protocol:
(§1) 2.5 x 10^7 FlpIn-TREx-HEK293-mGPRC6A cells were seeded in a T175 flask and incubated overnight at 37°C in 5% CO2. Cells were then transfected with 35 μg of plasmid DNA (GαqG66D) with Lipofectamine LTX according to manufacturer's instructions, then incubated for 24h at 37°C in 5% CO2. Prior to the experiment, a background reading for each E-plate 96 (Bio-Rad, CA, USA) was measured after addition of 100 μl DMEM + 10% FBS per well. Cells were recovered using Versene and seeded at a 10^5 cells/well density in 200 μl DMEM + 10% FBS (containing 1 μg/ml tetracycline where indicated). Cells were washed 2 x 2 h in HBSS buffer (pH 7.2) containing 20 mM HEPES, 1 mM CaCl2 and 0.1% BSA (w/v) in a total volume of 180 μl. Test compounds (20 μl at 10x final concentration) were added to the plate and cell impedance was monitored for 3 h. Cell index was normalised to the buffer response (minus the baseline response at zero time point).
(§2) Concentration-response data were analysed using a three or four parameter logistic function (Motulsky & Christopoulos, 2004) to generate estimates of agonist potency (LogEC50). Data for all HEK293 assays represent the mean ± SEM of at least three independent experiments (except cell impedance, n = 2). For GLP-1 release, the data represent mean ± SEM of three to five independent experiments (except for OCN, wash; n = 2). For insulin release assays, data represent the mean ± SEM of three independent experiments (except for islet studies; n = 2). Insulin release data were normalised to the response to vehicle in either low or high [glucose]. Statistical analysis for GLP-1 release data were performed by one-way ANOVA, followed by Sidak’s multiple comparisons test (treating wash / no wash datasets separately). Statistical analyses for insulin release data were performed by two-way ANOVA (with [glucose] and drug treatment as group variables), followed by Sidak’s multiple comparisons test. Where only high [glucose] groups were evaluated, statistical analysis was by one-way ANOVA followed by Sidak’s multiple comparisons test.

Assay [2] relates to un-induced FlpIn-TREx-HEK293-mGPRC6A cells. Kind of assay: Label-free cell impedance, un-induced FlpIn-TREx-HEK293-mGPRC6A cells. It is filed as cell-based. As to conditions: Fig 4. The protocol:
as §1

Assay [3] deals with 22RV1 / PC-3. As to conditions: endogenous; ref [9] (supplement list); cited from earlier work. The source says: (§3) Supplement pone.0146846.s004.docx, table 1 | column: Functional assay
For assay [4], the system named is hC6A. The settings on record: ref [9] (supplement list); cited from earlier work.
Description: as §3

Assay [5] concerns MIN6 cells. Briefly: Insulin release from MIN6 cells. It is filed as cell-based, murine. The settings on record: 16.7 mM glucose; P < 0.0001, two-way ANOVA; Fig 6B. The protocol:
(§4) MIN6 or βTC-6 cells were seeded in 24-well plates at 170,000 cells per well in DMEM (containing 4.5g/L glucose, 10 mM HEPES, 100 U/ml penicillin, 100 μg/ml streptomycin and 15% de-complemented FBS) and incubated at 37°C / 5% CO2 for 72 h. Cells were then washed with 500 μl PBS and incubated in 500 μl deprivation media (DMEM with zero glucose, 10 mM HEPES, 1 mM Na-pyruvate, 100 U/ml penicillin, 100 μg/ml streptomycin, 15% de-complemented FBS) for 2 h at 37°C. Media was aspirated and after washing with 500 μl PBS, cells were treated with 250 μl of Krebs buffer (250 mM NaCl, 5.9 mM KCl, 1.2 mM MgCl2, 1.3 mM CaCl2, 25 mM HEPES, 0.1% BSA (w/v), and 2 mM or 16.7 mM glucose; pH 7.4) in the presence or absence of test compound. After incubation for 2 h at 37°C, the assay was terminated by placing the plates on ice and supernatants were transferred to a 96-well plate in preparation for insulin ELISA (Alpco) following manufacturer’s instructions. The cell monolayer was washed twice with 500 μl of PBS and then lysed using 250 μl of 1 N NaOH prior to protein measurement by the method of Bradford (1976).
as §2

Assay [6] relates to β-TC6 cells. Kind of assay: Insulin release from β-TC6 cells. It is filed as cell-based, murine. As to conditions: P < 0.001, P < 0.0001, two-way ANOVA, S3 Fig A. The protocol: as §4, §2
The test system of assay [7] is mouse pancreatic islets. Briefly: Insulin release from mouse pancreatic islets. It is filed as cell-based. As to conditions: n = 2; P < 0.001, P < 0.0001; S3 Fig B. Here is the method: Islets were collagenase-isolated from mice (10 x C57Bl/6; 12–13 weeks; Charles River) and incubated overnight in RPMI (with 10% FBS (v/v), 10 mM HEPES, 100 U/ml penicillin, 100 μg/ml streptomycin, sodium pyruvate and 10 mM glucose) at 37°C in 5% CO2. Islets were seeded into a 96-well plate (4 / well) in Kreb’s buffer containing 2.8 mM glucose and washed twice with the same buffer. 200 μl test drugs were added in Kreb’s buffer with the required concentration of glucose and incubated at 37°C in 5% CO2 for 90 min. The plate was centrifuged for 10 s at 200 g, supernatant recovered and insulin levels detected as described above. This protocol was approved by the IDRS (Institut de Recherches Servier) Institutional Animal Care and Use Committee.
as §2

Assay [8] has as its system INS-1(832) cells. Briefly: Label-free cell impedance, INS-1(832) cells. As to conditions: Gprc6a-negative, EBSS, 2.8 mM glucose, Fig 7, two-way ANOVA, *P < 0.05, **P < 0.01 vs Vehicle. It is filed as cell-based, rat. Here is the method: For INS-1 cells, 100 μl of medium (RPMI 1640 no glucose, 10% FBS, 55 μM β-mercaptoethanol, 1 mM sodium pyruvate, 10 mM HEPES, 100 U/ml penicillin, 100 μg/ml streptomycin, 11.1 mM glucose) was added per well to an E-plate 96 and a background reading taken. Cells were seeded at 2 x 10^4 / well and the plates incubated in the instrument for 48 h. On the day of the experiment, media was changed to EBSS buffer (180 μl; 2.8 mM glucose, 1.8 mM CaCl2, 5.3 mM KCl, 0.8 mM MgSO4, 117 mM NaCl, 26 mM NaHCO3, 1 mM NaH2PO4). After 2 h incubation, cells were stimulated with 20 μl test compound (10 x final) prepared in the same buffer. Data capture and analysis were as for HEK293 cells.

“Also recorded” adds a separate entry of the source. Ends that are not written are not given here.

On to `Nc1ncnc2c1ncn2[C@@H]1O[C@H](COP(=O)(O)OP(=O)(O)OP(=O)(O)O)[C@@H](O)[C@H]1O` [ATP], for which the “cell impedance (cell index) response” value in assay [1] and in assay [2] was “concentration-dependent increase in cell index; also recorded: increases cellular impedance” throughout.
`[Cl-].[Cl-].[Zn+2]` [ZnCl2]: the pERK1/2 response entry in assay [3] is reported as “pERK1/2 – response to Ca^2+, ZnCl2, OCN, Arginine, Testosterone-BSA Proliferation – response to Ca^2+, OCN PSA, Runx2 expression – response to OCN, Arg, R1881 Chemotaxis (22RV1) – response to Ca^2+, OCN”; in assay [4], “pERK1/2 – response to Ca^2+, ZnCl2, OCN, Arginine, Testosterone-BSA”.
As for `OC[C@H]1OC(O)[C@H](O)[C@@H](O)[C@@H]1O` (stereo partly drawn) [glucose], the “insulin secretion, glucose effect” value in assay [5] was “significantly promoted insulin secretion; also recorded: significantly enhanced insulin secretion”; in assay [6], “released insulin in a glucose-sensitive manner”; in assay [6] (listed as Glucose) it was “significantly enhanced insulin secretion”; in assay [7], “released insulin in a glucose-sensitive manner; also recorded: significantly enhanced insulin secretion”.
For the compound “Bovine OCN: Purified bovine osteocalcin from bone (Meridian Life Science), carboxylated / under-carboxylated (YLDHWLGAPAPYPDPLEPKREVCELNPDCDELADHIGFQEAYRRFYGPV; ends and bridges not checked; also: γ-carboxyglutamic acid residues, partially carboxylated)”, the “cell impedance (cell index) response” value in assay [1] and in assay [2] was “did not change cell impedance” throughout. Besides, the “change in cell impedance (cell index)” value is given as “significant, concentration-dependent activity” in assay [8] and “significant changes in cell impedance; also recorded: Concentration-dependent increases in cell index” in assay [8] (listed as purified bovine OCN).

The record behind these values is article PMC4718634, “Murine GPRC6A Mediates Cellular Responses to L-Amino Acids, but Not Osteocalcin Variants” (PLoS ONE, 2016).
